One test concerns the target T1, Drosophila OR71a (Drosophila melanogaster, UniProt Q9VUK5).
T1 construct: expressed in transfected cells
T1 sequence (Q9VUK5 1-378): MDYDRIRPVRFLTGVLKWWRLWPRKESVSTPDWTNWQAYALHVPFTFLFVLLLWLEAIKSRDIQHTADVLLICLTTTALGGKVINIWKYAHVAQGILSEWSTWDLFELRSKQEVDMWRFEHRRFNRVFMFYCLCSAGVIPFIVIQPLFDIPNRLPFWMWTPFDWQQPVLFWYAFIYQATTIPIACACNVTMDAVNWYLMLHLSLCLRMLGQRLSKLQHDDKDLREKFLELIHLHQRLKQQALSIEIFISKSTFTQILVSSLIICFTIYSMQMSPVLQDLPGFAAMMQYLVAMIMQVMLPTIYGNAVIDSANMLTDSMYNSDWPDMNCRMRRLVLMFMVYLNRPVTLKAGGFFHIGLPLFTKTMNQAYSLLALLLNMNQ
T1 sequence (Q9VNB5 1-486 partner): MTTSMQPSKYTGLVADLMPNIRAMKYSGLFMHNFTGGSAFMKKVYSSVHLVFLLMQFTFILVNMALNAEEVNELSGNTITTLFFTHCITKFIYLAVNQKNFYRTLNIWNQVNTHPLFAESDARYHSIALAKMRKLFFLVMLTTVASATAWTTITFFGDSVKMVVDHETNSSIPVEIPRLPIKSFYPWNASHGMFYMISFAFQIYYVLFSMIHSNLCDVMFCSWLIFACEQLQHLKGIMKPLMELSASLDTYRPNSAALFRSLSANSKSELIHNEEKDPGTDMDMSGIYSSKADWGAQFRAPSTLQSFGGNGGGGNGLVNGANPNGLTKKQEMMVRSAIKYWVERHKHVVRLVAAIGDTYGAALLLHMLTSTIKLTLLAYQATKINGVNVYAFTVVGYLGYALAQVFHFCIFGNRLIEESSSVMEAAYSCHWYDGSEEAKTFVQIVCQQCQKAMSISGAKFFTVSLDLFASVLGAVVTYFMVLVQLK
The test is described as follows: Calcium ion fluorescence (GCaMP6) assay, OR71a stable HEK293 cell line. It counts as cell-based. The conditions noted are these: for OR71a response (VUAA1-normalized) at 1 μM / OR71a response (VUAA1-normalized) at 10 μM / OR71a response (VUAA1-normalized) at 100 μM / Average response: OR71a cell line; for OR71a response (VUAA1-normalized) at 1 μM: VOC concentration 1 μM; for OR71a response (VUAA1-normalized) at 10 μM: VOC concentration 10 μM; for OR71a response (VUAA1-normalized) at 100 μM: VOC concentration 100 μM; for Average response: VUAA1-normalized response, mean of biological replicates; for activation at 1 µM / activation at 10 µM / activation at 100 µM: HEK293, read-out: OR71a response (VUAA1-normalized response). The procedure, abridged:
(§1)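 HEK293 lines stably expressing each Drosophila OR with GCaMP6, doxycycline-induced (1 μg/mL) 48 or 72 h. Fluorescence recorded 5 s baseline then 30 s after VOC injection at pH 7.3; ΔF=(FMAX−F0)/F0, normalized to 50 µM VUAA1 response per line, triplicate wells averaged; concentration series 0.01–100 μM.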

Another test deals with T2, Drosophila OR49b (Drosophila melanogaster, UniProt Q9V6H2).
T2 construct: expressed in transfected cells
T2 sequence (Q9V6H2 1-375): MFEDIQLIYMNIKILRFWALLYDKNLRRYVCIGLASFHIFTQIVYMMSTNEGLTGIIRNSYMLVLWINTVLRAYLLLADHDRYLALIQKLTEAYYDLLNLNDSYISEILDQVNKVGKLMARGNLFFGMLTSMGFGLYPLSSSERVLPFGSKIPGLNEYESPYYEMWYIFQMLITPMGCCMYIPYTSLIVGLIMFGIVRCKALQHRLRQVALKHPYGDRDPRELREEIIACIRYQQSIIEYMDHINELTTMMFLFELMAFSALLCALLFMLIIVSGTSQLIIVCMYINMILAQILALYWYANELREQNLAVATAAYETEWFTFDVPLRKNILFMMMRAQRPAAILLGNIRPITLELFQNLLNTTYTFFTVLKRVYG
T2 sequence (Q9VNB5 1-486 partner): T1 sequence (Q9VNB5 1-486 partner)
The test is described as follows: cell-based. The following applies: for activation at 1 µM / activation at 10 µM / activation at 100 µM: HEK293; for OR49b response (VUAA1-normalized) at 1 μM / OR49b response (VUAA1-normalized) at 10 μM / OR49b response (VUAA1-normalized) at 100 μM / Average response: OR49b cell line; for Average response: mean of biological replicates; for DF norm AVERAGE OR49b: threshold 0.05, below shown as 0. In outline:
as §1

The mark [1] stands for this setting: ligand concentration 1 (unit not given), threshold 0.05, below shown as 0.
[2] abbreviates: ligand concentration 10 (unit not given), threshold 0.05, below shown as 0.
Where [3] appears, read: ligand concentration 100 (unit not given), threshold 0.05, below shown as 0.
[4] abbreviates: 1 μM VOC, 50 μM VUAA1 = 1, read-out: OR49b Average response (VUAA1-normalized).
[5] abbreviates: 10 μM VOC, 50 μM VUAA1 = 1, read-out: OR49b Average response (VUAA1-normalized).
Where [6] appears, read: 100 μM VOC, 50 μM VUAA1 = 1, read-out: OR49b Average response (VUAA1-normalized).
Setting [7] is: ligand concentration 1 (unit not given).
[8] abbreviates: ligand concentration 10 (unit not given).
Setting [9] is: ligand concentration 100 (unit not given).
[10] abbreviates: VOC concentration 1 μM, read-out: OR49b response (VUAA1-normalized response).
[11] abbreviates: VOC concentration 10 μM, read-out: OR49b response (VUAA1-normalized response).
Setting [12] is: VOC concentration 100 μM, read-out: OR49b response (VUAA1-normalized response).

Where two headings read alike, the source gives them in different places.

`Cc1ccccc1C` [o-xylene]: the “OR71a response (VUAA1-normalized) at 1 μM” value on Drosophila OR71a is on record as 0.00. Further, on Drosophila OR71a, the “OR71a response (VUAA1-normalized) at 10 μM” value is listed as 0.00. Also, the “OR71a response (VUAA1-normalized) at 100 μM” value on Drosophila OR71a is 0.00. The Average response on Drosophila OR71a (cc. 1 µM) was 0.00; at Drosophila OR71a (cc. 10 µM), 0.00; on Drosophila OR71a (cc. 100 µM) it was 0.00; at Drosophila OR49b (odorant cc. 1 µM), 0.00; on Drosophila OR49b (odorant cc. 10 µM), 0.09; at Drosophila OR49b (odorant cc. 100 µM), 0.64. Moreover, the “DF norm AVERAGE OR71a” value at Drosophila OR71a (setting [1]), at Drosophila OR71a (setting [2]) and at Drosophila OR71a (setting [3]) was 0 throughout. Further, the activation at 1 µM on Drosophila OR49b (setting [4]) was found to be 0%. In addition, the activation at 10 µM on Drosophila OR49b (setting [5]) is 9%. Moreover, the activation at 100 µM at Drosophila OR49b (setting [6]) was 64%. Also, the “OR49b response (VUAA1-normalized) at 1 μM” value on Drosophila OR49b (VOC concentration 1 μM) turned out to be 0.00. The “OR49b response (VUAA1-normalized) at 10 μM” value at Drosophila OR49b (VOC concentration 10 μM) was found to be 0.09. Further, the “OR49b response (VUAA1-normalized) at 100 μM” value on Drosophila OR49b (VOC concentration 100 μM) is 0.64. For the same compound, the “DF norm AVERAGE OR49b” value on Drosophila OR49b (setting [7]) is 0; at Drosophila OR49b (setting [8]), 0.08728; on Drosophila OR49b (setting [9]) it was 0.6438.
Take `CCCC(O)CC` (stereo not drawn) [3-hexanol]: the activation at 1 µM turned out to be 0% at Drosophila OR71a and 23% on Drosophila OR49b (setting [10]). In addition, the activation at 10 µM at Drosophila OR71a came to 6%; at Drosophila OR49b (setting [11]) it was 20%. Also, the activation at 100 µM at Drosophila OR71a is 0%; at Drosophila OR49b (setting [12]), 8%. For the same compound, the Average response at Drosophila OR71a (cc. 1 µM) was 0.00; at Drosophila OR71a (cc. 10 µM), 0.06; at Drosophila OR71a (cc. 100 µM), 0.0155; at Drosophila OR49b (odorant cc. 1 µM), 0.23; on Drosophila OR49b (odorant cc. 10 µM), 0.20; on Drosophila OR49b (odorant cc. 100 µM), 0.08. The “DF norm AVERAGE OR71a” value on Drosophila OR71a (concentration 1, normalized fluorescence change, values below 0.05 threshold given as 0) is on record as 0; at Drosophila OR71a (concentration 10, normalized fluorescence change, values below 0.05 threshold given as 0), 0.06016; at Drosophila OR71a (concentration 100, normalized fluorescence change, values below 0.05 threshold given as 0) it was 0.
In the case of `CC(=O)OCCC(C)C` [isopentyl acetate], the activation at 1 µM at Drosophila OR71a, on Drosophila OR49b (setting [4]) and at Drosophila OR49b (setting [10]) was 0% throughout. Also, the activation at 10 µM on Drosophila OR71a, on Drosophila OR49b (setting [5]) and at Drosophila OR49b (setting [11]) was 0% each time. Further, the activation at 100 µM at Drosophila OR71a is 0%; at Drosophila OR49b (setting [6]), 15%; at Drosophila OR49b (setting [12]), 15%. Further, the Average response is 0.0333 at Drosophila OR71a (cc. 1 µM); 0.037 at Drosophila OR71a (cc. 10 µM); 0.0218 on Drosophila OR71a (cc. 100 µM); 0.00 at Drosophila OR49b (odorant cc. 1 µM); 0.00 at Drosophila OR49b (odorant cc. 10 µM); 0.15 at Drosophila OR49b (odorant cc. 100 µM). The “DF norm AVERAGE OR71a” value at Drosophila OR71a (setting [1]), on Drosophila OR71a (setting [2]) and on Drosophila OR71a (setting [3]) was 0 throughout. Besides, the “DF norm AVERAGE OR49b” value on Drosophila OR49b (setting [7]) is given as 0; at Drosophila OR49b (setting [8]), 0; at Drosophila OR49b (setting [9]), 0.1516.
For `CCCCCOC(C)=O` [pentyl acetate], the “OR71a response (VUAA1-normalized) at 1 μM” value at Drosophila OR71a came out at 0.00. Also, on Drosophila OR71a, the “OR71a response (VUAA1-normalized) at 10 μM” value was found to be 0.00. In addition, the “OR71a response (VUAA1-normalized) at 100 μM” value on Drosophila OR71a is on record as 0.09. The Average response is on record as 0.00 on Drosophila OR71a (cc. 1 µM); 0.0163 at Drosophila OR71a (cc. 10 µM); 0.09 at Drosophila OR71a (cc. 100 µM); 0.08 on Drosophila OR49b (odorant cc. 1 µM); 0.0108 at Drosophila OR49b (odorant cc. 10 µM); 0.06 at Drosophila OR49b (odorant cc. 100 µM). Moreover, the “DF norm AVERAGE OR71a” value amounted to 0 on Drosophila OR71a (setting [1]), 0 at Drosophila OR71a (setting [2]) and 0.08698 on Drosophila OR71a (setting [3]). On Drosophila OR49b (VOC concentration 1 μM), the “OR49b response (VUAA1-normalized) at 1 μM” value is reported as 0.08. In addition, at Drosophila OR49b (VOC concentration 10 μM), the “OR49b response (VUAA1-normalized) at 10 μM” value worked out at 0.00. The “OR49b response (VUAA1-normalized) at 100 μM” value at Drosophila OR49b (VOC concentration 100 μM) is reported as 0.06. Moreover, the “DF norm AVERAGE OR49b” value on Drosophila OR49b (setting [7]) turned out to be 0.07954; at Drosophila OR49b (setting [8]), 0; on Drosophila OR49b (setting [9]) it was 0.06097.

For the origin of these results see publication PMC10709440, “High-throughput ligand profile characterization in novel cell lines expressing seven heterologous insect olfactory receptors for the detection of volatile plant biomarkers” (Scientific Reports, 2023).
